From ChEMBL document CHEMBL3351284, “Internalization and stability of a thymidylate synthase Peptide inhibitor in ovarian cancer cells” (J Med Chem, 2014)
Active and inactive are the calls of the source. The rule behind the calls is not given here.

Test system: C13
Experiment: Growth inhibition of cisplatin-resistant human C13 cells at 5 uM after 72 hrs by flow-cytometric analysis
Format: functional, cell-based

O=c1[nH]cc(F)c(=O)[nH]1
growth inhibition (GI): Active
